This note sets out measurements from ChEMBL document CHEMBL1201862, “PubChem BioAssay data set” (2004).

The target of assay [1] is T1, Calpain-2 catalytic subunit (Sus scrofa, UniProt P43367).
T1 sequence (P43367 whole entry): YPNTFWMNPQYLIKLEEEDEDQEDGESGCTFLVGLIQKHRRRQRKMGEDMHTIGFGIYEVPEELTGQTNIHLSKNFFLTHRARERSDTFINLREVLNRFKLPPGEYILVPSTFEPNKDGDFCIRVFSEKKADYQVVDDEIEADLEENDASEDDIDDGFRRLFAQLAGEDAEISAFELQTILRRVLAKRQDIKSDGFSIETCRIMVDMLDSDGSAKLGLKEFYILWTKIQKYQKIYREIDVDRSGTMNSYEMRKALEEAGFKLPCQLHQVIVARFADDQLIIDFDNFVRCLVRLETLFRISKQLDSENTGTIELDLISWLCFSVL
Put plainly: m-calpain protease blockers, concentration series – biochemical, fluorogenic peptide substrate, dose response (AID 1420). The class given is functional.

Assay [2] has as its target T2, Rac GTPase-activating protein 1 (Homo sapiens, UniProt Q9H0H5).
T2 sequence (Q9H0H5 whole entry): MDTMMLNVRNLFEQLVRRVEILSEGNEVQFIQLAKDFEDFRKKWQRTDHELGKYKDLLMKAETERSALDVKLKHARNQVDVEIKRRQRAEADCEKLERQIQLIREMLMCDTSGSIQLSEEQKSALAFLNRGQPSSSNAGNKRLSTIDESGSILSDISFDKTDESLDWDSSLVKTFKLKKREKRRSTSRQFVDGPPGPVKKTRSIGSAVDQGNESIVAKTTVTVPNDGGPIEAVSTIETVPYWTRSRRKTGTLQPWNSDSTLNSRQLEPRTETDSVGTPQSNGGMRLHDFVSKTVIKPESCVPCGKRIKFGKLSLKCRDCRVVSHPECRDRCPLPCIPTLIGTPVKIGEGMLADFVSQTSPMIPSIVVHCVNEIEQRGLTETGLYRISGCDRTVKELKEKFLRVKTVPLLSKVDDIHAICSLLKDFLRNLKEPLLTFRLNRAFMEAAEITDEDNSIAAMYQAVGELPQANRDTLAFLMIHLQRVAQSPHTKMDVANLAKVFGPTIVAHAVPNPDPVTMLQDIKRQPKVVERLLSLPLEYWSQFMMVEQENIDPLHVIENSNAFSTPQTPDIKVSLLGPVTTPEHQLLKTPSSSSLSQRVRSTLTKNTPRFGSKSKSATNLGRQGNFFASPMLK
Put plainly: blockers of MgcRacGAP-driven Rac1 GTP hydrolysis – biochemical, ADP Hunter fluorescence, primary and confirmatory, confirmation (AID 624330). In kind it is functional.

Assay [3] concerns the target T3, Polyadenylate-binding protein 1 (Homo sapiens, UniProt P11940). Put plainly: MLLE binding blockers, Cy5 peptide tracer – biochemical, fluorescence polarization, Cy5-PAM2 peptide, secondary, miRNA deadenylation inhibitor project, dose response (AID 602260). In kind it is functional. As to conditions: read-out: IC50_Mean.
Assay [4] has as its target T3, Polyadenylate-binding protein 1. Put plainly: MLLE domain peptide-binding blockers, IC50 – biochemical, fluorescence polarization, FITC-PAM2 peptide, dose response (AID 602259). Particulars: read-out: IC50_Mean. The class given is functional.
Assay [5] concerns BJ. Put plainly: BJ-TERT-LT-ST fibroblast viability loss – cell-based, RAS-independent, luminescence, dose response (AID 1935).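 Further: BJ fibroblasts immortalized with TERT plus LT and ST oncogenes.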 In kind it is functional. Particulars: Homo sapiens.
Assay [6] in a line: DRD fibroblast viability loss – cell-based, non-viral oncogenic, luminescence, dose response (AID 1934). Particulars: Homo sapiens. The class given is functional.
The subject of assay [7] is BJ. Put plainly: BJ-TERT fibroblast viability loss – cell-based, RAS-independent, luminescence, dose response (AID 1933). In kind it is functional. Particulars: Homo sapiens.
Assay [8] has as its system BJ. Put plainly: cells. Particulars: Homo sapiens. In kind it is functional, cell-based.
Assay [9] deals with Paired box protein Pax-8 (Homo sapiens, UniProt Q06710). Put plainly: PAX8 transcriptional activity inhibition in RMG-I – RMG-I cells, luciferase, cherry-pick, dose response (AID 687027).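 Further: luciferase reporter driven by Pax8 target thyroperoxidase promoter measured by SteadyGlo luminescence.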 In kind it is functional, cell-based.
Assay [10] deals with Cytochrome P450 2D6 (Homo sapiens, UniProt P10635).
Assay [11] has as its target T4, Corticotropin-releasing factor receptor 2/Corticotropin-releasing factor-binding protein (Homo sapiens, UniProt P24387+Q13324).
T4 sequence (Q13324 whole entry): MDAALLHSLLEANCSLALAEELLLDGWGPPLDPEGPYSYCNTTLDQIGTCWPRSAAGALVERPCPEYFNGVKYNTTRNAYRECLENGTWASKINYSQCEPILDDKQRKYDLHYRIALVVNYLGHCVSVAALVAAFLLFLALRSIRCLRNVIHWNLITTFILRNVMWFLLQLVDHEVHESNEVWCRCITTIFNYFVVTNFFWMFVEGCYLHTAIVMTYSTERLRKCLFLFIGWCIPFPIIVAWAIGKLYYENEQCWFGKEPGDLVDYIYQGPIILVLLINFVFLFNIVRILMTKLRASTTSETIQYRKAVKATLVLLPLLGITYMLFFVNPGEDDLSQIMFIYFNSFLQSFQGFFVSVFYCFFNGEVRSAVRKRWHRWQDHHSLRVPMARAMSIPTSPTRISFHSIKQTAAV
T4 sequence (P24387 whole entry): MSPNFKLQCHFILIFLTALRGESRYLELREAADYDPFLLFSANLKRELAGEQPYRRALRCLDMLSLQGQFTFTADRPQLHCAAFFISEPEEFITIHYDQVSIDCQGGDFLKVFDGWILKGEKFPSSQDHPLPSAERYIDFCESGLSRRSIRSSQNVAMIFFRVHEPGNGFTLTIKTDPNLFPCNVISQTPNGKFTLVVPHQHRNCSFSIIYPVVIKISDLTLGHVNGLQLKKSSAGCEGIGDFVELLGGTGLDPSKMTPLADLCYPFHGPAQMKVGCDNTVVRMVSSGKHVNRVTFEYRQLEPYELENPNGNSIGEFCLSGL
Put plainly: Dose Response confirmation of uHTS hits for small molecule antagonists of the CRF-binding protein and CRF-R2 receptor complex. The class given is functional. As to conditions: read-out: IC50_Mean.

Assay [12] deals with T4, Corticotropin-releasing factor receptor 2/Corticotropin-releasing factor-binding protein. Put plainly: activators of CRF receptor 2 with binding protein – uHTS hits, confirmation (AID 602473). The class given is functional. As to conditions: read-out: EC50_Mean.
Assay [13] in a line: Luminescence Cell-Based Dose Response HTS to Identify Activators of Luciferase Translation or Activity in H4 […] Cells. [Related pubchem assays: 1829 (Project Summary), 1814 (Primary HTS)]. In kind it is functional.

Calls of active or inactive are those of the source. A value given as a limit tells only on which side of the number the result lay.

T3 sequence (P11940 whole entry, the tested form may be a part): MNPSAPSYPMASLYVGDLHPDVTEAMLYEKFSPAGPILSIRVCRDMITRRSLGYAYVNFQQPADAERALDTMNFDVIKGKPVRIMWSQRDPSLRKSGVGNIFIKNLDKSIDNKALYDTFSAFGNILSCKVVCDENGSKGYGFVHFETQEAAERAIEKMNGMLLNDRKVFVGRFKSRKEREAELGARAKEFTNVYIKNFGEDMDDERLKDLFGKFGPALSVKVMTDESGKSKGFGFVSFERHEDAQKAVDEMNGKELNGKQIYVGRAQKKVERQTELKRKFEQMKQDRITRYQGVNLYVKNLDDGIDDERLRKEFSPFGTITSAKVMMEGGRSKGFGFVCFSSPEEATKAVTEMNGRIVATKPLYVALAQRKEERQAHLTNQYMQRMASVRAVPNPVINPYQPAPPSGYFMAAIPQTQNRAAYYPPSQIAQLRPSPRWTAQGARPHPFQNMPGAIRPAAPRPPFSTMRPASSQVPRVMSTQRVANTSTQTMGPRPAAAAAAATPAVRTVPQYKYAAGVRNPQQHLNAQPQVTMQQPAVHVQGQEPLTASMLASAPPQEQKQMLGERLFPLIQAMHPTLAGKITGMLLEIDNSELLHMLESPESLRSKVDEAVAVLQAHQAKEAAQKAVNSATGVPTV
Sequence of Paired box protein Pax-8 (Q06710 whole entry): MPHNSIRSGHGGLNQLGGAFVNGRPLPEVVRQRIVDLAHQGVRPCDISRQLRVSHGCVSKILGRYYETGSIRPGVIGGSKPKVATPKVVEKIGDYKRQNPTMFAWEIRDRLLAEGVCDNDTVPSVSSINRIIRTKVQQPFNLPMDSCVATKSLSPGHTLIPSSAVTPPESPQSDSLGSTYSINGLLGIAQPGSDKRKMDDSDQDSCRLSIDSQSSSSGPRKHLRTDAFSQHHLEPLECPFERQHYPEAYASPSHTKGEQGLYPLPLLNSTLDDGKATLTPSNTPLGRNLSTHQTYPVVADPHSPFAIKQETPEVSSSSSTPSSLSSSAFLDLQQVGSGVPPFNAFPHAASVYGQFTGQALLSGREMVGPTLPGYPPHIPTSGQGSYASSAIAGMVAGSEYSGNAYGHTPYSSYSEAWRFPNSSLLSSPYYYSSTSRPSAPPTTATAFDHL
Sequence of Cytochrome P450 2D6 (P10635 whole entry): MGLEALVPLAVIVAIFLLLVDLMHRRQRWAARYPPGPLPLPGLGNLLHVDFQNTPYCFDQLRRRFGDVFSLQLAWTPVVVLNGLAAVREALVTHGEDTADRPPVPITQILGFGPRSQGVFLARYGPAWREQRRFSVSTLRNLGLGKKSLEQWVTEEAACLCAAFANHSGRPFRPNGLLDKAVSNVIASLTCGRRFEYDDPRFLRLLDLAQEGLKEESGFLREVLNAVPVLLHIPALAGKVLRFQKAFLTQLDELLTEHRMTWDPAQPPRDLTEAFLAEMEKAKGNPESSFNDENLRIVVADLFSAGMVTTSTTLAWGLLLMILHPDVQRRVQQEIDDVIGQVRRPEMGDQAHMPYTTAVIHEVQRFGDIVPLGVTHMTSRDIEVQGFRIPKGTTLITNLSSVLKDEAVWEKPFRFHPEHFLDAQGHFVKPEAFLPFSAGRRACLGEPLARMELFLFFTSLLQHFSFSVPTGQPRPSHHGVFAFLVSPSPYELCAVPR

In the case of `COc1cc(CNc2nc(C)c([N+](=O)[O-])c(C)c2C#N)cc(OC)c1`, in [1], the IC50 is listed as 1.63 µM (not active).
As to `c1ccc(CNC23CC4CC(CC(C4)C2)C3)nc1`, the IC50 in assay [2] is 110 µM (active).
Take `CCCCOC(=O)c1ccc(NC(=O)c2c(Cl)ccc(Cl)c2OC)cc1`: the IC50 in assay [1] is on record as 10.8 µM (not active).
As for `CCOC(=O)c1c(-c2ccc(C)o2)csc1NC(=S)NC(=O)c1ccc(F)cc1`, the IC50 in assay [3] and in assay [4] was > 66 µM (inactive) each time.
As to `CC(=O)/C(C#N)=C1\NC(=O)C(Cc2cc(Cl)ccc2Cl)S1` (configuration not stated), the EC50 in assay [5] is > 150 µM (not active); in [6], 76.8 µM (active); in assay [7] it was > 150 µM (not active); in assay [8], 61.2 µM (active).
With `O=C(N/C(=C\c1ccco1)C(=O)N1CCCC1CO)c1ccccc1` (configuration not stated), the IC50 in assay [3] and in assay [4] was > 66 µM (inactive) in each case.
Consider `CCCCC1=CC2=C(c3ccco3)C(=O)C(C)(OC(=O)c3ccc(OC)cc3)C(=O)C2=CN1c1ccc(OC)cc1` (configuration not stated), for which the EC50 in assay [5] is > 150 µM (inconclusive); in [6], > 150 µM (not active); in assay [7], 47.1 µM (active); in assay [8], > 150 µM (not active).
`O=C(CSc1ccc(-c2cccnc2)nn1)c1ccc([N+](=O)[O-])cc1`: the IC50 in assay [3] and in assay [4] was > 66 µM (inactive) in each case.
Regarding `CSCc1ccc(C(=O)N2CCCC(Nc3ccc4c(c3)OCCO4)C2)o1` (configuration not stated), the IC50 in assay [2] is 152 µM (active).
In the case of `Cc1noc(/C=C/c2ccco2)c1S(=O)(=O)N1CCC(C(=O)NC(C)c2ccccc2)CC1` (configuration not stated), the AC50 in [9] was 0.931 µM (active).
Consider `COc1cccc(OC)c1OCCCN1CCOCC1`, for which, in [2], the IC50 was 162 µM (active). Also, the AC50 in [10] is 39.8 µM (inconclusive).
Take `CC(=O)c1ccc(NC(=O)C2CCCNC2=O)cc1` (configuration not stated): the IC50 in [3] and in assay [4] was > 66 µM (inactive) in each case.
In the case of `Cc1noc(C)c1COc1ccc(C(=O)OCc2nnc(-c3ccc(Cl)cc3)o2)cc1`, the IC50 in [1] is given as 4.47 µM (not active).
Regarding `Cn1c(SCC(=O)N2CCCc3ccccc32)nc2cccnc21`, the IC50 in assay [11] was > 47.1 µM (inactive). Also, in assay [12], the EC50 was > 53 µM (inactive).
Consider `COc1ccc(N2CCN(C(=O)Nc3ccc(S(=O)(=O)N(C)C)cc3)CC2)cc1`, for which the IC50 in assay [1] is < 0.4 µM (not active).
On to `N#CC1=C(S)N(c2ccccc2)C(c2ccc(-c3ccccc3Cl)o2)NC1=O` (configuration not stated), for which the IC50 in assay [2] was 99.8 µM (active).
Take `O=C(CN1C(=O)NC(Cc2ccccc2)C1=O)Nc1ccccc1` (configuration not stated): in [1], the IC50 is 17.4 µM (not active).
With `COc1ccnc(Oc2ccc3ccccc3c2)c1C#N`, in assay [1], the IC50 is > 50 µM (not active).
As to `COc1cccc(/C=C2\SC(=O)N(CC(=O)NC3C=CS(=O)(=O)C3)C2=O)c1` (configuration not stated), the IC50 in assay [3] is > 66 µM (inactive); in assay [4], 56.6 µM (inactive).
With `COc1ccc(NC(S)=NCCc2c(C)[nH]c3ccc(OC)cc23)cc1`, in [1], the IC50 is recorded as 30.1 µM (not active).
Consider `Cc1cccnc1NC(=O)C(C)Oc1ccccc1` (configuration not stated), for which the IC50 in [11] is > 47.1 µM (inactive). Also, in assay [12], the EC50 was > 53 µM (inactive).
`CN(NC(=O)c1ccccc1F)c1nc(C(F)(F)F)nc2ccccc12`: the EC50 in assay [5] is 0.428 µM (inconclusive); in assay [6] it was 0.628 µM (active); in assay [7], 0.667 µM (inconclusive); in [8], 0.813 µM (active).
`Cc1ccc(CCC(=O)Nc2ncc(Cc3cccc(Cl)c3Cl)s2)o1`: the EC50 in assay [5] was 0.216 µM (inconclusive); in assay [6] it was 0.381 µM (active); in assay [7], 0.311 µM (active); in [8] it was 0.668 µM (active).
Turning to `Cc1ccc(C)c(S(=O)(=O)N2CCN(CC(=O)N3CCc4ccccc4C3)CC2)c1`, in assay [2], the IC50 was 93 µM (active).
`Cc1ccc(-n2c(C)cc(C(=O)COC(=O)c3c(C)noc3C)c2C)cc1`: the EC50 in assay [13] is 0.413 µM (active).
Consider `Cc1noc(C)c1COC(=O)C(c1ccccc1)c1ccccc1`, for which the IC50 in assay [1] is reported as 11.3 µM (not active).
With `COc1ccc(CNC(=O)[C@H](C)NC(=O)C2CCN(S(=O)(=O)c3ccc(F)cc3)CC2)cc1`, the IC50 in assay [11] is > 47.1 µM (inactive). The EC50 in [12] is > 53 µM (inactive).
Regarding `CC(=O)CC(=O)Nc1ccc(Nc2ccccc2)cc1`, the IC50 in [2] was 178 µM (active).
`Cc1occc1C(=O)NC(C)C12CC3CC(CC(C3)C1)C2` (configuration not stated): the IC50 in assay [11] was > 47.1 µM (inactive). Further, in assay [12], the EC50 was > 53 µM (inactive).
The corresponding values for `CSc1ccc(S(=O)(=O)NCC(=O)OCC(=O)N(Cc2ccccc2)C(C)C)cc1[N+](=O)[O-]` are > 47.1 µM (inactive) and > 53 µM (inactive).
As to `COc1ccc(NC2CCCN(C(=O)c3ccc(C)nc3)C2)cc1` (configuration not stated), the IC50 in assay [2] was 161 µM (active).
Consider `CCc1ccc(Nc2nnc(SC(C)C(=O)NC3CC3)s2)cc1` (configuration not stated), for which the IC50 in [11] is > 47.1 µM (inactive). For the same compound, the EC50 in assay [12] was > 53 µM (inactive).
On to `O=C(CN1c2cccc3cccc(c23)S1(=O)=O)NC1CCCCC1`, for which, in [11], the IC50 is > 47.1 µM (inactive). For the same compound, in [12], the EC50 is > 53 µM (inactive).
`C[C@H](CO)N1C[C@H](C)[C@H](CN(C)Cc2ccc3c(c2)OCO3)Oc2ccc(NC(=O)Nc3cccc4ccccc34)cc2C1=O`: the AC50 in assay [9] was 26.5 µM (active).
`COc1cc(/C=N/N2C(=O)c3ccccc3C2=O)ccc1O`: the IC50 in assay [2] is 50.2 µM (active).
For the compound `CCOc1cc(/C=N/NC(=O)C(OC)c2ccccc2)ccc1O` (configuration not stated), the IC50 in assay [2] is 54.9 µM (active).
`O=C1ON=C(c2ccccc2)/C1=C/c1ccco1`: the IC50 in [2] is 91 µM (active).
